Measured values as given in patent US20130072430A1, “METHODS FOR TREATMENT OR PROPHYLAXIS OF KIDNEY OR LIVER DYSFUNCTION” (NPS PHARMACEUTICALS, INC., priority 2010, published 2013).

Tested on: Human patients with short bowel syndrome
Assay: Example 1: liver diagnostic biomarkers (total bilirubin, ALT, AST, ALP) in short bowel syndrome patients, every four weeks for 24 weeks
Format: in vivo
Set-up: AST (SGOT) Change from Baseline, Median / ALT (SGPT), Median / TOTAL BILIRUBIN, Median / TOTAL BILIRUBIN Change from Baseline, Median / ALT (SGPT) Change from Baseline, Median / AST (SGOT), Median: unit not given here
Details: 0.05 mg/kg/day
Procedure: Human patients with short bowel syndrome were divided into three groups: a control group (16 total individuals) to receive placebo, an experimental group (35 total individuals) to receive teduglutide at 0.05 mg/kg/day throughout the study, and an experimental group (32 total individuals) to receive teduglutide at 0.1 mg/kg/day throughout the study. Patients were treated by subcutaneous injection of placebo or the appropriate dose of teduglutide. As individuals with short bowel syndrome are likely to experience associated liver and kidney disease, known biomarkers of liver and kidney function were monitored every four weeks, for 24 weeks. The liver biomarkers tested included total bilirubin, ALT and AST and ALP. The kidney biomarkers tested included urea nitrogen, creatinine and GFR. Before administration of placebo or teduglutide, diagnostic biomarker levels were tested to establish a baseline for each individual.
To visualize the effect of GLP-2 on the levels of the diagnostic biomarkers, the average change from baseline was calculated for the placebo and teduglutide treated groups for each visit after a baseline was established. The average change from baseline of each group is depicted in FIGS. […]. The numerical figures for each diaanostic biomarker at each time point are depicted in Table 1.
The efficacy of teduglutide in treating liver dysfunction was further tested by sorting the data into two groups: individuals with abnormal baseline values of liver diagnostic biomarkers; and individuals with normal baseline values of liver diagnostic biomarkers. The mean diagnostic biomarker change from baseline for these two groups is shown for ALT (FIGS. 5 and 6) and AST (FIGS. 7 and 8). […] These changes were significant when compared to baseline levels for the group, and when compared to placebo (see FIGS. 5 and 7).
The raw data for this sorting is reproduced in Table 2 below.

For `CC[C@H](C)[C@H](NC(=O)[C@H](Cc1ccccc1)NC(=O)[C@H](CC(=O)O)NC(=O)[C@H](CCCNC(=N)N)NC(=O)[C@H](C)NC(=O)[C@H](C)NC(=O)[C@H](CC(C)C)NC(=O)[C@H](CC(N)=O)NC(=O)[C@H](CC(=O)O)NC(=O)[C@H](CC(C)C)NC(=O)[C@@H](NC(=O)[C@@H](NC(=O)[C@H](CC(N)=O)NC(=O)[C@H](CCSC)NC(=O)[C@H](CCC(=O)O)NC(=O)[C@H](CC(=O)O)NC(=O)[C@H](CO)NC(=O)[C@H](Cc1ccccc1)NC(=O)[C@H](CO)NC(=O)CNC(=O)[C@H](CC(=O)O)NC(=O)CNC(=O)[C@@H](N)Cc1c[nH]cn1)[C@@H](C)O)[C@@H](C)CC)C(=O)N[C@@H](CC(N)=O)C(=O)N[C@@H](Cc1c[nH]c2ccccc12)C(=O)N[C@@H](CC(C)C)C(=O)N[C@H](C(=O)N[C@@H](CCC(N)=O)C(=O)N[C@H](C(=O)N[C@@H](CCCCN)C(=O)N[C@H](C(=O)N[C@H](C(=O)N[C@@H](CC(=O)O)C(=O)O)[C@@H](C)O)[C@@H](C)CC)[C@@H](C)O)[C@@H](C)CC` [teduglutide], the “ALKALINE PHOSPHATASE Change from Baseline, Mean (SD)” value (“ALKALINE PHOSPHATASE Change … (SD)” for short) (DW4) was −24.8 (45.66), the “ALKALINE PHOSPHATASE Change from Baseline, Median” value (DW4) was −16.0 and the “ALKALINE PHOSPHATASE, Mean (SD)” value (DW4) was 159.5 (90.91). For the same compound, the “ALKALINE PHOSPHATASE, Median” value (DW4) was 139.0, the “ALT (SGPT) Change from Baseline, Mean (SD)” value (from here on “ALT (SGPT) Change … (SD)”) (DW4) was −14.9 (26.39) and the “ALT (SGPT) Change from Baseline, Median” value (DW4) was −5.0. For the same compound, the “ALT (SGPT), Mean (SD)” value (DW4) was 30.1 (14.08), the “ALT (SGPT), Median” value (DW4) was 27.0 and the “AST (SGOT) Change from Baseline, Mean (SD)” value (“AST (SGOT) Change … (SD)” below) (DW4) was −5.5 (24.09). The “AST (SGOT) Change from Baseline, Median” value (DW4) was −4.0, the “AST (SGOT), Mean (SD)” value (DW4) was 29.1 (19.23) and the “AST (SGOT), Median” value (DW4) was 27.0. For the same compound, the “TOTAL BILIRUBIN Change from Baseline, Mean (SD)” value (from here on “TOTAL BILIRUBIN Change … (SD)”) (DW4) was −0.8 (4.31), the “TOTAL BILIRUBIN Change from Baseline, Median” value (DW4) was 0.0 and the “TOTAL BILIRUBIN, Mean (SD)” value (DW4) was 10.4 (9.48). For the same compound, the “TOTAL BILIRUBIN, Median” value (DW4) was 7.0, the “ALKALINE PHOSPHATASE Change … (SD)” value (DW8) was −24.0 (64.47) and the “ALKALINE PHOSPHATASE Change from Baseline, Median” value (DW8) was −20.0. For the same compound, the “ALKALINE PHOSPHATASE, Mean (SD)” value (DW8) was 152.2 (84.05), the “ALKALINE PHOSPHATASE, Median” value (DW8) was 134.0 and the “ALT (SGPT) Change … (SD)” value (DW8) was −9.8 (30.38). For the same compound, the “ALT (SGPT) Change from Baseline, Median” value (DW8) was −4.0, the “ALT (SGPT), Mean (SD)” value (DW8) was 37.3 (23.71) and the “ALT (SGPT), Median” value (DW8) was 31.5. The “AST (SGOT) Change … (SD)” value (DW8) was −3.2 (19.88), the “AST (SGOT) Change from Baseline, Median” value (DW8) was −3.0 and the “AST (SGOT), Mean (SD)” value (DW8) was 33.5 (18.56). For the same compound, the “AST (SGOT), Median” value (DW8) was 28.0, the “TOTAL BILIRUBIN Change … (SD)” value (DW8) was −0.4 (4.78) and the “TOTAL BILIRUBIN Change from Baseline, Median” value (DW8) was −1.0. For the same compound, the “TOTAL BILIRUBIN, Mean (SD)” value (DW8) was 10.8 (8.86), the “TOTAL BILIRUBIN, Median” value (DW8) was 8.0 and the “ALKALINE PHOSPHATASE Change … (SD)” value (DW12) was −39.4 (48.95). The “ALKALINE PHOSPHATASE Change from Baseline, Median” value (DW12) was −24.0, the “ALKALINE PHOSPHATASE, Mean (SD)” value (DW12) was 143.5 (73.92) and the “ALKALINE PHOSPHATASE, Median” value (DW12) was 130.5. For the same compound, the “ALT (SGPT) Change … (SD)” value (DW12) was −12.7 (29.55), the “ALT (SGPT) Change from Baseline, Median” value (DW12) was −10.0 and the “ALT (SGPT), Mean (SD)” value (DW12) was 34.6 (24.30). The “ALT (SGPT), Median” value (DW12) was 26.0, the “AST (SGOT) Change … (SD)” value (DW12) was −5.9 (19.28) and the “AST (SGOT) Change from Baseline, Median” value (DW12) was −8.0. The “AST (SGOT), Mean (SD)” value (DW12) was 29.2 (15.48), the “AST (SGOT), Median” value (DW12) was 26.5 and the “TOTAL BILIRUBIN Change … (SD)” value (DW12) was −1.8 (5.75). For the same compound, the “TOTAL BILIRUBIN Change from Baseline, Median” value (DW12) was −1.0, the “TOTAL BILIRUBIN, Mean (SD)” value (DW12) was 9.4 (6.65) and the “TOTAL BILIRUBIN, Median” value (DW12) was 7.0. The “ALKALINE PHOSPHATASE Change … (SD)” value (DW16) was −12.3 (69.90), the “ALKALINE PHOSPHATASE Change from Baseline, Median” value (DW16) was −20.5 and the “ALKALINE PHOSPHATASE, Mean (SD)” value (DW16) was 168.2 (128.08). For the same compound, the “ALKALINE PHOSPHATASE, Median” value (DW16) was 134.0, the “ALT (SGPT) Change … (SD)” value (DW16) was −3.2 (24.76) and the “ALT (SGPT) Change from Baseline, Median” value (DW16) was −2.5. The “ALT (SGPT), Mean (SD)” value (DW16) was 39.5 (39.44), the “ALT (SGPT), Median” value (DW16) was 28.0 and the “AST (SGOT) Change … (SD)” value (DW16) was −4.3 (11.75). For the same compound, the “AST (SGOT) Change from Baseline, Median” value (DW16) was −1.5, the “AST (SGOT), Mean (SD)” value (DW16) was 29.3 (12.05) and the “AST (SGOT), Median” value (DW16) was 25.0. The “TOTAL BILIRUBIN Change … (SD)” value (DW16) was −1.3 (9.00), the “TOTAL BILIRUBIN Change from Baseline, Median” value (DW16) was −1.0 and the “TOTAL BILIRUBIN, Mean (SD)” value (DW16) was 10.0 (8.90). For the same compound, the “TOTAL BILIRUBIN, Median” value (DW16) was 7.0, the “ALKALINE PHOSPHATASE Change … (SD)” value (DW20) was −36.9 (49.89) and the “ALKALINE PHOSPHATASE Change from Baseline, Median” value (DW20) was −25.0. The “ALKALINE PHOSPHATASE, Mean (SD)” value (DW20) was 144.2 (76.09), the “ALKALINE PHOSPHATASE, Median” value (DW20) was 136.5 and the “ALT (SGPT) Change … (SD)” value (DW20) was −16.0 (28.73). The “ALT (SGPT) Change from Baseline, Median” value (DW20) was −5.0, the “ALT (SGPT), Mean (SD)” value (DW20) was 29.7 (13.35) and the “ALT (SGPT), Median” value (DW20) was 26.0. For the same compound, the “AST (SGOT) Change … (SD)” value (DW20) was −8.0 (14.96), the “AST (SGOT) Change from Baseline, Median” value (DW20) was −4.0 and the “AST (SGOT), Mean (SD)” value (DW20) was 26.1 (7.02). For the same compound, the “AST (SGOT), Median” value (DW20) was 25.0, the “TOTAL BILIRUBIN Change … (SD)” value (DW20) was −0.8 (5.69) and the “TOTAL BILIRUBIN Change from Baseline, Median” value (DW20) was 0.0. The “TOTAL BILIRUBIN, Mean (SD)” value (DW20) was 9.7 (6.78), the “TOTAL BILIRUBIN, Median” value (DW20) was 9.0 and the “ALKALINE PHOSPHATASE Change … (SD)” value (DW24) was −11.6 (166.86). For the same compound, the “ALKALINE PHOSPHATASE Change from Baseline, Median” value (DW24) was −29.0, the “ALKALINE PHOSPHATASE, Mean (SD)” value (DW24) was 169.6 (204.22) and the “ALKALINE PHOSPHATASE, Median” value (DW24) was 131.0. The “ALT (SGPT) Change … (SD)” value (DW24) was −13.5 (24.40).
